Columns and labels:
Rhesus monkey [1] = assay: Toxicity in monkey up to 28 days; format: organism-based, Macaca mulatta; conditions: in vivo, 672 h
[2] = target: T1, Sodium-dependent noradrenaline transporter (Homo sapiens, UniProt P23975); assay: Inhibition of recombinant human norepinephrine transporter
[3] = Drug level in rat brain at 100 mg/kg, po administered after 1 hr post dosing; format: ADME, organism-based; design: dose 100 mg/kg, route oral; conditions: read-out: Drug uptake
Histamine H3 receptor [4] = target: T2, Histamine H3 receptor (Rattus norvegicus, UniProt Q9QYN8); assay: Inverse agonist activity at rat histamine H3 receptor assessed as inhibition of R-alpha-methylhistamine induced [35S]GTPgammaS binding; format: functional
[5] = target: T3, Sodium-dependent dopamine transporter (Homo sapiens, UniProt Q01959); assay: Inhibition of dopamine transporter
Rattus norvegicus [6] = organism: Rattus norvegicus; assay: Toxicity in rat up to 28 days; format: organism-based; conditions: in vivo, 672 h
Rattus norvegicus [7] = assay: Inhibition of RAMH-induced dipsogenia in ip dosed Long Evans rat administered 15 mins prior to RAMH challenge; format: functional
Histamine H3 receptor [8] = target: T2, Histamine H3 receptor; assay: Antagonist activity at histamine H3 receptor in rat cortical membrane; format: functional, cell membranes
[9] = target: T3, Sodium-dependent dopamine transporter; assay: Inhibition of recombinant human dopamine transporter
[10] = Mutagenic activity in Salmonella Typhimurium by Ames test in presence of rat liver S9 fraction; format: toxicity, subcellular; conditions: salmonella enterica subsp. enterica serovar typhimurium
[11] = Distribution coefficient log D of the compound at pH 7.4; format: physicochemical; conditions: octanol/water
Rhesus monkey [12] = assay: Toxicity in monkey assessed as changes in cardiovascular function after 28 days; format: organism-based, Macaca mulatta, Heart; conditions: in vivo, 672 h
Rattus norvegicus [13] = assay: Toxicity in rat central nervous system assessed as changes in behavioral response at 10 to 300 mg/kg, po measured from 15 mins through 6 hrs by Irwin test; format: organism-based; design: dose 10-300 mg/kg, route oral; conditions: in vivo
[14] = target: Alpha-1A adrenergic receptor (Homo sapiens, UniProt P35348); assay: Inhibition of adrenergic alpha 1A receptor
[15] = Mutagenic activity in human peripheral blood lymphocytes by micronucleus test in presence metabolic activation; format: toxicity, cell-based; conditions: lymphocyte
[16] = Dissociation constant, pKa of the compound; format: physicochemical
Salmonella typhimurium = assay: Mutagenic activity in Salmonella Typhimurium by Ames test; format: toxicity, organism-based; conditions: salmonella enterica subsp. enterica serovar typhimurium
[17] = Apparent permeability across human Caco2 cell membrane; format: ADME, cell-based; conditions: Caco-2
Rattus norvegicus [18] = assay: Inhibition of RAMH-induced dipsogenia in Long Evans rat administered as po 15 mins prior to RAMH challenge; format: functional
Rhesus monkey [19] = assay: Toxicity in monkey assessed as changes in respiratory function after 28 days; format: organism-based, Macaca mulatta; conditions: in vivo, 672 h
[20] = target: Poly [ADP-ribose] polymerase 1 (Homo sapiens, UniProt P09874); assay: Inhibition of human PARP1
[21] = Aqueous solubility of the compound at pH 2; format: physicochemical
[22] = target: Muscarinic acetylcholine receptor M2 (Homo sapiens, UniProt P08172); assay: Inhibition of muscarinic M2 receptor
[23] = target: T1, Sodium-dependent noradrenaline transporter; assay: Inhibition of norepinephrine transporter
Histamine H3 receptor [24] = target: T2, Histamine H3 receptor; assay: Displacement of [3H]NAMH from rat histamine H3 receptor expressed in CHO cells; format: cell-based
[25] = Inhibition of PDE3
[26] = Aqueous solubility of the compound at pH 7.4; format: physicochemical
[27] = Mutagenic activity in human peripheral blood lymphocytes by micronucleus test in absence metabolic activation; format: toxicity, cell-based; conditions: lymphocyte
Rattus norvegicus [28] = assay: Toxicity in rat central nervous system assessed as side effects up to 100 mg/kg, po measured from 15 mins through 6 hrs by Irwin test; format: organism-based; design: dose 100 mg/kg, route oral; conditions: in vivo
Histamine H3 receptor [29] = target: T4, Histamine H3 receptor (Homo sapiens, UniProt Q9Y5N1); assay: Displacement of [3H]NAMH from human histamine H3 receptor expressed in CHO cells; format: cell-based
Histamine H3 receptor [30] = target: T4, Histamine H3 receptor; assay: Inverse agonist activity at human histamine H3 receptor assessed as inhibition of R-alpha-methylhistamine induced [35S]GTPgammaS binding; format: functional

T2 sequence (Q9QYN8 whole entry): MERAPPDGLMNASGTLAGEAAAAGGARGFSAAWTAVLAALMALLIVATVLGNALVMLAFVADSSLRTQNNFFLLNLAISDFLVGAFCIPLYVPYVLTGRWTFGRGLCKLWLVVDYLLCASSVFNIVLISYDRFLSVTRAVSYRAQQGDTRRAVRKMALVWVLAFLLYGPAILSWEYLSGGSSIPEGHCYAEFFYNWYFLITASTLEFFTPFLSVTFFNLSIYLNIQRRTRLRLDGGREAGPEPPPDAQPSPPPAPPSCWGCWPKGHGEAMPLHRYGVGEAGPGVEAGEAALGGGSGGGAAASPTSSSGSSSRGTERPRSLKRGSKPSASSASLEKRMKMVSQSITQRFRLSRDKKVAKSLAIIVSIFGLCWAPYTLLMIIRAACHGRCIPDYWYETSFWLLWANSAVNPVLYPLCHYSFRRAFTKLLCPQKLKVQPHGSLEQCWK
T1 sequence (P23975 whole entry): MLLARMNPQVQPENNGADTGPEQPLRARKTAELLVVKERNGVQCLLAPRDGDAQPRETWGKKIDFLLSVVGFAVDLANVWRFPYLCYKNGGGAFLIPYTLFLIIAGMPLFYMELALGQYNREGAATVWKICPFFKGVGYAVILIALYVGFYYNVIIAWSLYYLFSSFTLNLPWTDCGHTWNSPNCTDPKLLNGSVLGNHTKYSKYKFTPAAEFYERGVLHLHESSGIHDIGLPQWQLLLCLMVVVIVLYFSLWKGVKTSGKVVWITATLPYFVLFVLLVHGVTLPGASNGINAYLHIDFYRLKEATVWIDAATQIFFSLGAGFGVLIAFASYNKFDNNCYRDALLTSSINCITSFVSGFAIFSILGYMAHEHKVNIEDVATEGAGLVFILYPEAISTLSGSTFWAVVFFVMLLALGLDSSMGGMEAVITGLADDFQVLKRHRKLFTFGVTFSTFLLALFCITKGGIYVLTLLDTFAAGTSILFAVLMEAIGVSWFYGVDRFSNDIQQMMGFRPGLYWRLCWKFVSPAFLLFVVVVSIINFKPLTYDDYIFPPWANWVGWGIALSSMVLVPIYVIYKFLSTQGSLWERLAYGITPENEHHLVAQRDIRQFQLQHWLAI
T4 sequence (Q9Y5N1 whole entry): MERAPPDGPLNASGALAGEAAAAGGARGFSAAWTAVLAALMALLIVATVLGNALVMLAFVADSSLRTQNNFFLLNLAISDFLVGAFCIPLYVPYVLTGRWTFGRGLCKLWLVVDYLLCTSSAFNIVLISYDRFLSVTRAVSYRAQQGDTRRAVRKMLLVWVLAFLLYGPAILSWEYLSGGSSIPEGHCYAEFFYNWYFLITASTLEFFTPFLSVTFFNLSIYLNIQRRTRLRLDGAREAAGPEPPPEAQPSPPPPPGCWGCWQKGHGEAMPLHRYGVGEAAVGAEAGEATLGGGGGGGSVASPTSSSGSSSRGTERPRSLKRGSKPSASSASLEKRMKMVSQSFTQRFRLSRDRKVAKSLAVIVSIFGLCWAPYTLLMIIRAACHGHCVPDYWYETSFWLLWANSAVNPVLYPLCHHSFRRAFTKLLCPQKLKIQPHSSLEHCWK
T3 sequence (Q01959 whole entry): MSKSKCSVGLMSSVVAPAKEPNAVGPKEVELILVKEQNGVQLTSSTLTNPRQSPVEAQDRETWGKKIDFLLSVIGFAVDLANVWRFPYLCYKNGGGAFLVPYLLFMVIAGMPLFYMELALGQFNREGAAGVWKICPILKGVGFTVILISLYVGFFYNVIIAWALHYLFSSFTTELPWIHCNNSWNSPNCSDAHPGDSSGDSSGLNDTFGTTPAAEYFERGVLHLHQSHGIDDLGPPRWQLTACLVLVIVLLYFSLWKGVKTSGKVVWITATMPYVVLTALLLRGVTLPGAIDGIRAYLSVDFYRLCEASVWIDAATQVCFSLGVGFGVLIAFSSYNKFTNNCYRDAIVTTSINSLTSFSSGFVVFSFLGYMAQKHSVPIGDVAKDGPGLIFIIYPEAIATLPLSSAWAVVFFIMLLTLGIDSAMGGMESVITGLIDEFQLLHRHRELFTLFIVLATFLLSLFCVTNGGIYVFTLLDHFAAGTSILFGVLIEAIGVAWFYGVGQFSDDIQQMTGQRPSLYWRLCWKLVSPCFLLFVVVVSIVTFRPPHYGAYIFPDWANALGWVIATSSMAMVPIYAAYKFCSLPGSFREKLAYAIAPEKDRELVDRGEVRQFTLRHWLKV
Chain of Muscarinic acetylcholine receptor M2 (P08172 whole entry): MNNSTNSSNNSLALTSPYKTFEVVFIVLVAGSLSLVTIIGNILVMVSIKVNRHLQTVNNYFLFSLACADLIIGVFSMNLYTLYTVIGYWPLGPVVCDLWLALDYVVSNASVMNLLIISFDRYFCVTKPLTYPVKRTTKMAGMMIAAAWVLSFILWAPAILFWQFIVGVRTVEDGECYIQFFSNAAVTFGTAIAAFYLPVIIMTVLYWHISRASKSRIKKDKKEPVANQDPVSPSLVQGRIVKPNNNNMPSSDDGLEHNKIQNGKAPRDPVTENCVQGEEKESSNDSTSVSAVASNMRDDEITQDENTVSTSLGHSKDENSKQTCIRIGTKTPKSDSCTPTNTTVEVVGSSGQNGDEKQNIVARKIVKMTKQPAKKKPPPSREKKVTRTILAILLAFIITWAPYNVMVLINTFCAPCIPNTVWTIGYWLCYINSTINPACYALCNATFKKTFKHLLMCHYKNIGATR
Chain of Poly [ADP-ribose] polymerase 1 (P09874 whole entry): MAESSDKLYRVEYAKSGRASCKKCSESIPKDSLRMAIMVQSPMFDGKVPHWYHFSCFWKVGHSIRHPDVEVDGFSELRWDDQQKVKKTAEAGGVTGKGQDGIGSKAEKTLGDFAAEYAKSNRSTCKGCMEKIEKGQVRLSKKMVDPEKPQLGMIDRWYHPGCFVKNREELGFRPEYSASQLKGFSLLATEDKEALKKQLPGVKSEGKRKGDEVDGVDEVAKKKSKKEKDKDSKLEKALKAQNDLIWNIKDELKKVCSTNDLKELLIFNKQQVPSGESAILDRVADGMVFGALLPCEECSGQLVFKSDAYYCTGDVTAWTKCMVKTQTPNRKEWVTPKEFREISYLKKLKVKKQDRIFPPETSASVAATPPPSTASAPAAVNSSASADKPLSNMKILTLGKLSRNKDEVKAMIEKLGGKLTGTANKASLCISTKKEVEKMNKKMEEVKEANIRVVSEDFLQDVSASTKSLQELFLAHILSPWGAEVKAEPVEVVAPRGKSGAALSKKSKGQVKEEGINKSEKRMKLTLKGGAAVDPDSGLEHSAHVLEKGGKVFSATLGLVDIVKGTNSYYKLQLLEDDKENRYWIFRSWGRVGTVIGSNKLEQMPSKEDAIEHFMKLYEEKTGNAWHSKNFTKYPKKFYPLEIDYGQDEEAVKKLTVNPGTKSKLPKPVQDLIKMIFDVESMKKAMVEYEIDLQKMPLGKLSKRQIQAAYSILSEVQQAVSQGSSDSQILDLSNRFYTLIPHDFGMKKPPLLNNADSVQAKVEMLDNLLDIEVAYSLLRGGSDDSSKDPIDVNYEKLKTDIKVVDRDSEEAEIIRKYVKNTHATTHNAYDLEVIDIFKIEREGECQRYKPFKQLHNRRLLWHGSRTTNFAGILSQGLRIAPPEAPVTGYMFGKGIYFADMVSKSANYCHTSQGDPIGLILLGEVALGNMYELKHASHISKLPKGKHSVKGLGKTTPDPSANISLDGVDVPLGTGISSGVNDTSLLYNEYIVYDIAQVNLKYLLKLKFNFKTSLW
Chain of Alpha-1A adrenergic receptor (P35348 whole entry): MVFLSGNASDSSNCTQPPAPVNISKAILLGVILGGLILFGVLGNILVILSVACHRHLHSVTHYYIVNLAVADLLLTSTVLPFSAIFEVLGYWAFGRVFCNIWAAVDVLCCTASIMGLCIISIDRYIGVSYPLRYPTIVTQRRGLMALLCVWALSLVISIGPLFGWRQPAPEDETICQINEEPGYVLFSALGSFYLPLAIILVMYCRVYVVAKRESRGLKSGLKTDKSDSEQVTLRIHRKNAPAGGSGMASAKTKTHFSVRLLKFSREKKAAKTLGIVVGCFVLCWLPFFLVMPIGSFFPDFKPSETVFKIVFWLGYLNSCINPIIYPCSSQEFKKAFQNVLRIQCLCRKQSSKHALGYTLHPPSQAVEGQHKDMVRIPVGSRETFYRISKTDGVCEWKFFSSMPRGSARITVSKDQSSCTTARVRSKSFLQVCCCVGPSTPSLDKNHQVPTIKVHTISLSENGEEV

IC50 [2]: 17.5 µM
concentration at 1 h [3]: 36 µM
EC50 (Histamine H3 receptor [4]): 0.002 µM
Ki [5]: 11 µM
Ki (Histamine H3 receptor [8]): 0.0027 µM
IC50 [9]: 9.4 µM
logD [11]: 0.6
Ki [14]: 9.8 µM
pKa [16]: 10.2
Papp [17]: 13.5 ×10⁻⁶ cm/s
IC50 [20]: > 30 µM
solubility [21]: > 2000 µg/mL
Ki [22]: 3.7 µM
Ki [23]: 10 µM
Ki (Histamine H3 receptor [24]): 0.0072 µM
IC50 [25]: 15 µM
solubility [26]: > 2000 µg/mL
Ki (Histamine H3 receptor [29]): 0.002 µM
EC50 (Histamine H3 receptor [30]): 0.0011 µM
Compound: C[C@@H]1CCCN1CCCOc1ccc(-c2ccc(=O)[nH]n2)cc1 [IRDABISANT]
Activity (Rhesus monkey [1]): Non-toxic
Activity (Rattus norvegicus [6]): Non-toxic
ED50 (Rattus norvegicus [7]): 0.06 mg/kg
Activity [10]: Non-toxic
Activity (Rhesus monkey [12]): Non-toxic
Activity (Rattus norvegicus [13]): Non-toxic
Activity [15]: Non-toxic
Activity (Salmonella typhimurium): Non-toxic
ED50 (Rattus norvegicus [18]): 0.01 mg/kg
Activity (Rhesus monkey [19]): Non-toxic
Activity [27]: Non-toxic
Activity (Rattus norvegicus [28]): Non-toxic

From ChEMBL document CHEMBL1811886 (J Med Chem, 2011)
